The values that follow come from patent US12599583B2, “Small molecule GRB2 stabilizers for Ras map kinase inhibition” (Board of Regents, The University of Texas System, priority 2019, dated 2026).

The target of experiment [1] is T1, GRB2 (Homo sapiens, UniProt P62993). Description: fluorescence anisotropy assay measuring GRB2 dimerization. The format is biochemical. To be noted: 100 nM Atto488 labeled GRB2; NB = No Binding (inability to induce GRB2 dimerization); read-out: EC50 anisotropy, compound induced GRB2 dimerization. As for the experimental part:
FIGS. 16A & 16B show fluorescence anisotropy assay data measuring GRB2 dimerization. 100 nM Atto488 labeled GRB2, which is below its dimer forming concentration, was used to identify compounds that induce dimerization. […] Note that NB represent compounds inability to induce GRB2 dimerization.
GRB2 dimerization was measured by fluorescence anisotropy assay. 100 nM Atto488 labeled GRB2, which is below its dimer forming concentration, was used to identify compounds that induce dimerization. […] Note that NB represent compounds inability to induce GRB2 dimerization.

In experiment [2] the target is T1, GRB2. Description: GRB001 binding to GRB2 by MST. The note with it: read-out: Kd, in vitro binding to GRB2 by MST. As for the experimental part: In vitro binding of GRB001 to GRB2 with 50 μM Kd.
In experiment [3] the target is T1, GRB2. Description: ITC binding to GRB2. The note with it: read-out: Kd, binding to GRB2 by ITC. The source says:
Validation of in vitro binding of GRB001 to GRB2 with ITC as an alternative technique. […] GRB001 is able to bind GRB2 in two different conformations as reflected by the energy signature (inset).
FIGS. 14A-14C show ITC binding isotherm of GRB001 binding to GRB2 as in FIG. 4 (FIG. 14A).

A further experiment concerns the target GRB2 dimer interface (Homo sapiens, UniProt P62993). Description: GRB2 monomer dimer equilibrium measurement. The format is biochemical. To be noted: presence of 100 μM GRB001. As for the experimental part:
Measurements of GRB2 monomer dimer equilibrium in the absence (lower, darker line) or presence of 100 μM GRB001 (upper, lighter line).

Experiment [4] concerns RTK induced Ras signaling. Description: EGF and FGF induced MAPK activation in multiple cancer cell-lines. The format is cell-based. The source says:
GRB001 inhibits RAS/ERK activation while EGFR is fully active (FIG. 6D, top panel and the corresponding active EGFR in bottom panel)

In experiment [5] the test system is MDA-MB-231 triple negative breast cancer cells with G13D k-Ras mutation. Description: EGF induced MAPK activation in MDA-MB-231 cells. The format is cell-based.
Experiment [6] concerns A549 (lung adenocarcinoma) cells with G12S KRAS mutation. Description: EGF induced MAPK activation in A549 cells. The format is cell-based.
The next experiment concerns MDA-MB-231 TNBC. Description: apoptosis in MDA-MB-231 tumor cells. Format: cell-based. The source says: GRB001 specifically kills triple negative breast cancer cells through caspase 3/7 mediated apoptosis (FIG. 8B).
The subject of the next experiment is A549 lung cancer cells. Description: apoptosis in A549 tumor cells. The format is cell-based.
In another experiment the test system is OVCAR5. Description: EGF induced ERK activation in OVCAR5 cells. The format is cell-based.
For a further experiment, the system named is OVCAR8 cells. Description: EGF induced ERK activation in OVCAR8 cells. Format: cell-based.

T1 sequence (P62993 whole entry): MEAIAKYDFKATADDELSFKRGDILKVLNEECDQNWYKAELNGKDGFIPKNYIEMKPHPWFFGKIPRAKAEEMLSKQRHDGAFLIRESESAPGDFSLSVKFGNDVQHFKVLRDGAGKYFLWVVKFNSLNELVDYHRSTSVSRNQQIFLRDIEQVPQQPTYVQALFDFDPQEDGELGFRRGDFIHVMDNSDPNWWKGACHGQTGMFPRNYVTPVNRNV
GRB2 dimer interface, sequence (P62993 whole entry): as above

As for `O=C1Cc2cc(NC(=O)Nc3ccc(F)cc3)ccc2N1` [GRB001], the EC50 at GRB2 [1] is 49.7 µM. The equilibrium dissociation constant (Kd) stood at 50 µM at GRB2 [2] and 37 µM at GRB2 [3]. Also, the “effect on GRB2 monomer dimer equilibrium” value on GRB2 dimer interface is reported as “induce a Kd shift favoring dimerization”. Moreover, the “inhibition of EGF and FGF induced MAPK activation” value in [4] was “inhibits EGF and FGF induced MAPK activation”. The “inhibition of EGF induced MAPK activation” value in [5] and in [6] was “inhibits RTK induced Ras signaling” in each case. For the same molecule, the induction of apoptosis result with MDA-MB-231 TNBC and in the experiment with A549 lung cancer cells was “induces apoptosis” in each case. For the same molecule, the “inhibition of EGF induced ERK activation” value with OVCAR5 and in the experiment on OVCAR8 cells was “inhibition of EGF induced ERK activation” throughout.
